Reference: ChEMBL document CHEMBL5223153, “Elucidation of protective effects of oxime derivatives against cisplatin-induced cytotoxicity in LLC-PK1 kidney cells” (2023)
Activity calls are given as the source filed them. The calls are words filed in the database; no cut-off is given here.

Legend:
LLC-PK1 [1] = experiment: Nephroprotective activity against cisplatin induced cytotoxicity in pig LLC-PK1 cells assessed as increase in cell viability at 50 uM incubated for 24 hrs by MTT assay; format: functional, Sus scrofa
LLC-PK1 [2] = experiment: Nephroprotective activity against cisplatin induced cytotoxicity in pig LLC-PK1 cells assessed as decrease in phosphorylated JNK level at 125 uM incubated for 24 hrs by Western blot analysis; format: functional, cell-based; conditions: Sus scrofa
LLC-PK1 [3] = experiment: Nephroprotective activity against cisplatin induced apoptosis in pig LLC-PK1 cells assessed as decrease in ratio of apoptotic cells at 125 uM incubated for 24 hrs by annexin V staining based image cytometric analysis; format: functional, cell-based; conditions: Sus scrofa
LLC-PK1 [4] = experiment: Nephroprotective activity against cisplatin induced cytotoxicity in pig LLC-PK1 cells assessed as increase in cell viability at 25 uM incubated for 24 hrs by MTT assay; format: functional, Sus scrofa
LLC-PK1 [5] = experiment: Nephroprotective activity against cisplatin induced cytotoxicity in pig LLC-PK1 cells assessed as decrease in cleaved caspase-3 level at 125 uM incubated for 24 hrs by Western blot analysis; format: functional, cell-based; conditions: Sus scrofa
LLC-PK1 [6] = experiment: Nephroprotective activity against cisplatin induced cytotoxicity in pig LLC-PK1 cells assessed as increase in cell viability at 250 uM incubated for 24 hrs by MTT assay; format: functional, Sus scrofa
LLC-PK1 [7] = experiment: Nephroprotective activity against cisplatin induced cytotoxicity in pig LLC-PK1 cells assessed as increase in cell viability at 125 uM incubated for 24 hrs by MTT assay; format: functional, Sus scrofa
LLC-PK1 [8] = experiment: Nephroprotective activity against cisplatin induced cytotoxicity in pig LLC-PK1 cells assessed as decrease in phosphorylated ERK level at 125 uM incubated for 24 hrs by Western blot analysis; format: functional, cell-based; conditions: Sus scrofa

With `COc1cc(Br)c(/C=C/C(=N/O)c2ccc(Br)cc2)cc1OC` the Activity (LLC-PK1 [1]) was 83.86%, the Activity (LLC-PK1 [2]) was “Active” and the Activity (LLC-PK1 [3]) was “Active”. The Activity (LLC-PK1 [4]) was 66.83%, the Activity (LLC-PK1 [5]) was “Active” and the Activity (LLC-PK1 [6]) was 94.78%. For the same compound, the Activity (LLC-PK1 [7]) was 83.79% and the Activity (LLC-PK1 [8]) was “Active”.
`COc1cc(Br)c(/C=C/C(=N/O)c2ccc(Cl)cc2)cc1OC` was tested, and the Activity (LLC-PK1 [1]) was 82.22%, the Activity (LLC-PK1 [2]) was “Active” and the Activity (LLC-PK1 [3]) was “Active”. For the same compound, the Activity (LLC-PK1 [5]) was “Active”, the Activity (LLC-PK1 [6]) was 94.51% and the Activity (LLC-PK1 [7]) was 84.41%. The Activity (LLC-PK1 [8]) was “Active”.
